US8450522B2, “Conformationally constrained carboxylic acid derivatives useful for treating metabolic disorders” (Amgen Inc., priority 2008, dated 2013)
Entries after “also recorded” stand apart in the source; their conditions may differ.

Legend:
GPR40 [1] = biological target: T1, GPR40 (Homo sapiens, UniProt O14842); assay: Cell-based aequorin assay (CHO cells stably transfected with GPR40 and aequorin); set-up: expressed in transfected cells; conditions: activation of human GPR40, CHO cells, 0.01% HSA
T1 sequence (O14842 whole entry): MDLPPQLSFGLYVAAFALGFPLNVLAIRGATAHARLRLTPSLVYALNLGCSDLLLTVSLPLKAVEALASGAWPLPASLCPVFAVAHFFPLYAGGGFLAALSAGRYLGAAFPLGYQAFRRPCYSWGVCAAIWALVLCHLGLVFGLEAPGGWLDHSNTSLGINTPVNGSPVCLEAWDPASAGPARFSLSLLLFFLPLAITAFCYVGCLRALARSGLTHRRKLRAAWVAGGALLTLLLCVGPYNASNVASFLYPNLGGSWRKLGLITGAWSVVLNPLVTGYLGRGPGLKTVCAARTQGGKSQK
Experimental: Briefly, the Aequorin assays were performed on doubly stable CHO cells expressing GPR40 and Aequorin DNA. […] The luminescence was recorded over a period of 20 seconds with a Microlumat luminometer (Berthold).
Cell-based aequorin assays were employed to characterize the modulatory activity of compounds on the GPR40 signaling pathway. In an exemplary assay, CHO cells were stably transfected with both GPR40 and Aequorin (Euroscreen). Cells were detached from the tissue culture dish with 2 mL of trypsin (0.25% (w/v)). Trypsinization was halted with 28 mL of Hanks Buffered Salt Solution containing 20 mM Hepes (H/HBSS) and 0.01% fatty acid-free human serum albumin (HSA). Coelantrazine is added to 1 ug/mL, and the cells were incubated for 2 hours at room temperature. Compounds were dissolved in DMSO for preparation of 10 mM stock solutions. Compounds were diluted in H/HBSS containing 0.01% HSA. Serial dilutions of the test compounds were prepared to determine dose response.
Aequorin luminescence measurements were made using an EG&G Berthold 96-well luminometer, and the response was measured over a 20 second interval after cells and compounds were mixed. The maximum relative light units was plotted to determine dose response. The EC50 (effective concentration to reach 50% maximal response) was determined from the dose response plot.

GPR40 [2] = biological target: T1, GPR40; assay: Competition binding assay on A9 membranes expressing GPR40; set-up: expressed in transfected cells; host or cells: membranes of A9 cells expressing GPR40; conditions: 5 nM [3H] labeled Comparative Compound 1, 4 hours at room temperature
Experimental: Competition binding assays were performed on A9 membranes expressing GPR40.

GPR40 [3] = biological target: T1, GPR40; assay: Inositol phosphate accumulation assay (A9 cell line stably transfected with GPR40); assay type: cell-based; set-up: expressed in transfected cells; conditions: human GPR40, A9_GPR40 cells, 1 hour at 37° C.; read-out: IP3 EC50 (inositol phosphate assay data)
Experimental: An A9 cell line stably transfected with GPR40 (A9_GPR40) was used in IP accumulation assays. A9_GPR40 cells were plated in 96-well plates containing 20,000 cells/well in DMEM containing 10% FBS. After the cells attached to the well surface, the media was replaced with inositol free DMEM containing 10% dialyzed FBS and 1 μCi, mL ^3H-inositol and incubated for 16 hours. Compounds were diluted in HBSS/10 mM LiCl containing a desired amount of HSA and added directly to cells. Following 1 hour incubation at 37° C., the media was replaced with 100 μl of 20 mM formic acid to quench the reaction. 50 μL of the extract was then added to 100 μL of SPA beads, incubated overnight, and measured on a TopCount the following day.

Row | Structure (SMILES) | EC50 (GPR40 [1]) [µM] | displacement of 3H-labeled Comparative Compound 1 (GPR40 [2]) | effect on binding of the radioligand (3H-labeled Comparative Compound 1) to the receptor (GPR40 [2]) | EC50 (GPR40 [3]) [µM]
1 | COc1ccc(F)c(-c2ccc(COc3ccc4c(c3)[C@@H](CC(=O)O)CC4)cc2C(C)(C)C)c1 (single isomer, unassigned) [Example 1, ((1R)-6-(((2-(1,1-Dimethylethyl)-2′-fluoro-5′-(methyloxy)-1,1′-biphenyl-4-yl)methyl)oxy)-2,3-dihydro-1H-inden-1-yl)acetic acid or ((1S)-6-(((2-(1,1-Dimethylethyl)-2′-fluoro-5′-(methyloxy)-1,1′-biphenyl-4-yl)methyl)oxy)-2,3-dihydro-1H-inden-1-yl)acetic acid] | 1 to 10 | did not displace | enhanced the total binding; also recorded: enhanced the binding of the radioligand | –
2 | COc1ccc(F)c(-c2ccc(COc3ccc4c(c3)[C@@](C)(CC(=O)O)CC4)cc2[C@@H](OC)C(C)(C)C)c1 (single isomer, unassigned) [Example 36, ((1R)-6-((2′-Fluoro-5′-methoxy-2-((1S)-1-methoxy-2,2-dimethylpropyl)-4-biphenylyl)methoxy)-1-methyl-2,3-dihydro-1H-inden-1-yl)acetic acid or ((1R)-6-((2′-fluoro-5′-methoxy-2-((1R)-1-methoxy-2,2-dimethylpropyl)-4-biphenylyl)methoxy)-1-methyl-2,3-dihydro-1H-inden-1-yl)acetic acid] | 0.1 to 1 | – | – | < 0.01
3 | COc1cc(-c2ccc(COc3ccc4c(c3)[C@@](C)(CC(=O)O)CC4)cc2[C@@H](OC)C(C)(C)C)c(F)cn1 (single isomer, unassigned) [Example 37, 2-((1R)-6-(4-(5-Fluoro-2-methoxypyridin-4-yl)-3-((S)-1-methoxy-2,2-dimethylpropyl)benzyloxy)-1-methyl-2,3-dihydro-1H-inden-1-yl)acetic acid or 2-((1R)-6-(4-(5-fluoro-2-methoxypyridin-4-yl)-3-(R)-1-methoxy-2,2-dimethylpropyl)benzyloxy)-1-methyl-2,3-dihydro-1H-inden-1-yl)acetic acid] | 0.1 to 1 | – | – | < 0.01
4 | COc1cc(-c2ccc(COc3ccc4c(c3F)[C@@](C)(CC(=O)O)CC4)cc2[C@H]2CCCC2(C)C)c(F)cn1 (single isomer, unassigned) [Example 38, {(R)-6-[3-((S)-2,2-Dimethyl-cyclopentyl)-4-(5-fluoro-2-methoxy-pyridin-4-yl)-benzyloxy]-7-fluoro-1-methyl-indan-1-yl}-acetic acid or stereoisomer thereof] | 0.1 to 1 | – | – | 0.01 to 0.1
5 | COc1cc(-c2ccc(COc3ccc4c(c3F)[C@@](C)(CC(=O)O)CC4)cc2[C@@H](OC)C(C)(C)C)c(F)cn1 (single isomer, unassigned) [Example 39, {(R)-7-Fluoro-6-[4-(5-fluoro-2-methoxy-pyridin-4-yl)-3-((S)-1-methoxy-2,2-dimethyl-propyl)-benzyloxy]-1-methyl-indan-1-yl}-acetic acid or stereoisomer thereof] | 0.1 to 1 | – | – | 0.01 to 0.1
6 | CC[C@]1(CC(=O)O)CCc2ccc(OCc3ccc(-c4cc(OC)ccc4F)c([C@H]4CCCC4(C)C)c3)cc21 (single isomer, unassigned) [Example 42] | 0.1 to 1 | – | – | 0.01 to 0.1
7 | CC[C@]1(CC(=O)O)CCc2ccc(OCc3ccc(-c4cc(OC)ncc4F)c([C@H]4CCCC4(C)C)c3)cc21 (single isomer, unassigned) [Example 43] | 0.1 to 1 | – | – | 0.01 to 0.1
8 | CC[C@]1(CC(=O)O)CCc2ccc(OCc3ccc(-c4cc(OC)ccc4F)c([C@@H](OC)C(C)(C)C)c3)cc21 (single isomer, unassigned) [Example 44] | 0.1 to 1 | – | – | 0.01 to 0.1
9 | CC[C@]1(CC(=O)O)CCc2ccc(OCc3ccc(-c4cc(OC)ccc4F)c([C@@H](OC)C(C)(C)C)c3)cc21 (single isomer, unassigned) [Example 45] | 0.1 to 1 | – | – | 0.1 to 1
10 | COc1cc(-c2ccc(COc3ccc4c(c3)[C@@H](CC(=O)O)CCC4)cc2[C@H]2CCCC2(C)C)c(F)cn1 (single isomer, unassigned) [Example 46] | 0.1 to 1 | – | – | 0.01 to 0.1
11 | COc1cc(-c2ccc(COc3ccc4c(c3)[C@@](C)(CC(=O)O)CCC4)cc2[C@H]2CCCC2(C)C)c(F)cn1 (single isomer, unassigned) [Example 48] | 0.1 to 1 | – | – | 0.01 to 0.1
12 | COc1ccc(F)c(-c2ccc(COc3ccc4c(c3)[C@H]([C@@H](C)C(=O)O)CC4)cc2C2=CCCC2(C)C)c1 [Example 14] | 0.1 to 1 | – | – | 0.01 to 0.1
13 | COc1ccc(F)c(-c2ccc(COc3ccc4c(c3)[C@H]([C@@H](C)C(=O)O)CC4)cc2[C@H]2CCCC2(C)C)c1 [Example 15] | 0.1 to 1 | – | – | 0.01 to 0.1
14 | COc1cc(-c2ccc(COc3ccc4c(c3F)C(C)(CC(=O)O)CC4)cc2C2CCCC2(C)C)c(F)cn1 [Example 40, {(S)-6-[3-((S)-2,2-Dimethyl-cyclopentyl)-4-(5-fluoro-2-methoxy-pyridin-4-yl)-benzyloxy]-7-fluoro-1-methyl-indan-1-yl}-acetic acid or stereoisomer thereof] | 0.1 to 1 | – | – | 0.1 to 1
